Reference: patent US12109315B2, “Method for treating Blastocystis infection” (Imam Abdulrahman Bin Faisal University, priority 2022, dated 2024)
Read-outs that look alike come from different tables or passages of the source.

What was measured:
Blastocystis cysts = assay: organism not typed; format: cell-based; conditions: read-out: Reduction in the percentage of viability of Blastocystis cysts
Source text: Suspensions of cultured Blastocystis from symptomatic patients were used for evaluating biological activities of the formulated nanocomposites. Blastocystis were obtained from the El-Badry Lab where ethically approved by the Deanship of Scientific Research and Postgraduate Studies of Imam Abdulrahman Bin Faisal University under the Institutional Review Board (IRB) number (IRB #2021-01-009).
Blastocystis were sub-cultured using fresh Jones' medium enriched with 10% horse serum according to Jones to get rid of stool debris [Jones, W. Ann Trop Med Parasitol., 1946, 40, 130-140; & Zman, V., and Khan, K. Southt Asian J Trop Med Public Health, 1994, 25, 792-793, each of which is incorporated herein by reference in its entirety]. Cultures with vacuolar forms of Blastocystis greater than 10^6 were used for evaluating biological activities of the formulated nanocomposites.
Suspension of cultured Blastocytis cysts, in logarithmic growth phase of 10^6/ml, were inoculated in sets of culture tubes with Jones' culture media. Haemocytometer counting chamber was used to count the number of Blastocystis cysts. The experiments contained 3 groups as follows:
Group 1 (G1): parasite (negative, not treated) control group, containing only cultured cysts of Blastocystis.
Group 2 (G2): drug (positive) control, containing cultured parasites exposed to 500 μg/ml metronidazole as reference anti-Blastocystis therapy.
Group 3 (G3): nanocomposites tested group, containing cultured parasites exposed to the three nanocomposites. G3 was further divided into subgroups to test three nanocomposites (G3A, G3B and […]) at different concentrations (G3i-iv). Parasites were exposed to increasing concentrations of the three nanocomposites of 100 μg/ml (G3i) 200 μg/ml (G3ii), 500 μg/ml (G3iii) and 800 μg/ml (G3iv) (W/V). All tubes were incubated at 37° C. in humidified CO2 for 48 hours.
All tested nanocomposites for each concentration were prepared by diluting stock solution in appropriate amount of PBS. The volume of each of the experiment tubes was brought to 1 ml with Blastocystis 10^6/ml concentration. All experiments were performed in triplicate [El-Sayed, S. H., et. al., Res J Parasitol., 2017, 12,2, 33-44; Méabed, E. M. H., Phytomedicine, 2018, 1, 43, 158-163; & Mokhtar, A. B., et. al., Int J Environ Res Public Health, 2019, 16, 1555, each of which is incorporated herein by reference in its entirety].
The number of Blastocystis cysts from all cultured tubes included in the experiment were counted under the microscope in haemocytometer counting chamber, and cultured Blastocystis cysts were tested for their viability using Trypan blue solution (0.4%). […] The dead Blastocystis cysts were further confirmed by microscopic detection of cell wall disruption and destruction of internal structures. All cultured tubes were examined for percentage of reduction in growth of Blastocystis cysts each hour for 5 hours then after 24 hours. The minimal lethal concentration (MLC) was determined to be the concentration at which no Blastocystis cysts were observed.

[1] = Drug release study (dialysis membrane, PBS, UV-visible spectroscopy); format: physicochemical; conditions: within 12 h, absence of nanocarrier, PBS pH 5.6, 37° C.
Protocol: Prior to the study, the dialysis membrane (12 KDa, Sigma Aldrich) was activated and then 15 mg of nanoformulation was dispersed in 25 ml of PBS solution (pH 5.6 and 7.4). The release of antioxidants are studied at 37° C. At regular time interval, 5 ml of solution was withdrawn, and release of antioxidants were measured using UV-visible spectroscopy. The withdrawn solution (5 ml) was replaced with equal volume of fresh PBS solution.
Various concentration of aliquots 5, 10, 15, 20, 25 and 30 μg/ml was prepared with makeup volume to 10 ml using release medium PBS solution (pH=5.6 or 7.4) and calibration curve established against blank at maximum absorption wavelength λmax of 428 nm and 307 nm, respectively. […] The release study was repeated in triplicates.

Cc1ncc([N+](=O)[O-])n1CCO [Metronidazole, metronidazole]
inhibition at 500 µg/mL (Blastocystis cysts; 1 h): 81.7%
inhibition at 500 µg/mL (Blastocystis cysts; 2 h): 87.7%
inhibition at 500 µg/mL (Blastocystis cysts; 3 h): 91.3%
inhibition at 500 µg/mL (Blastocystis cysts; 4 h): 96.3%
inhibition at 500 µg/mL (Blastocystis cysts; 5 h): 98.7%
inhibition at 500 µg/mL (Blastocystis cysts; 24 h): 99.3%

Oc1ccc(/C=C/c2cc(O)cc(O)c2)cc1 [resveratrol, Resveratrol]
maximum release of resveratrol (burst release) [1]: 43%
